According to patent US20100168228A1, “NOVEL CHEMOTHERAPEUTIC AGENTS AGAINST INFLAMMATION AND CANCER” (RELIANCE LIFE SCIENCES PVT. LTD., priority 2006, published 2010):

Columns and labels:
Format in all cases: cell-based, human
[1] = test system: NF-κB; assay: NF-κB activation assay, HeLa; conditions: 15 μM 3 h, 0.1 nM TNF 30 min
Method: FIG. 4: Effect of CAMVE on NF-κB activation in different cell lines. A. HeLa, MCF-7, U937, were incubated at 37° C. for 3 h with 15 μM dose of CAMVE and then stimulated with 0.1 nM TNF for 30 min. After these treatments, nuclear extracts were prepared and assayed for NF-κB using BD Transfactor ELISA method. B. RAW 264.7 cells pretreated with indicated doses of CAMVE were stimulated with 100 ng/ml LPS for 30 min and assayed for NF-κB activation.
Cell pellet was resuspended in lysis buffer (10 mM HEPES, pH 7.9, 1.5 mM MgCl2, 10 mM KCl, 1 mM PMSF, 1 mMDTT, 0.5% NP 40, 0.1 mM EGTA and 0.1 mM EDTA) and allowed to swell on ice for 15 min, followed by centrifugation at 3300×g for 20 min. The cell pellet was resuspended in a volume of lysis buffer equal to the cell pellet volume. The cell suspension was slowly drawn down into a syringe and ejected the content in a single stroke. Disrupted cells were incubated for 15 min on ice, and the disrupted cell suspension was centrifuged at 10,000×g for 20 min at 4° C. […]
The assay was performed by using wells coated with oligonucleotides having the consensus DNA binding sites for the specific transcription factors. […] Bound transcription factor was detected by a specific Primary Antibody. […] After addition of the substrate, the Absorbance was recorded at 655 nm.

[2] = test system: ICAM1 (CD54); assay: ICAM 1 (CD 54) expression by flow cytometry
Method: FIG. 7: Effect of CAMVE on TNF or LPS induced ICAM1 (CD54) expression. Cells (5×10^5 cells/ml) were pretreated with different concentrations of CAMVE for 3 h and then treated with TNF (0.1 nM) or SA-LPS (100 ng/ml) for 12 h at 37° C. in a CO2 incubator. Treated cells were washed and stained with anti human CD54-FITC conjugated antibody to measure the amount of surface ICAM1 expression. The relative mean fluorescence intensity (MFI) was measured using FACS Calibur (BD). A. Representative histogram overlay showing TNF or LPS stimulated (1), basal (2), CAMVE pretreated (3). B. Values are given as MFI (mean±S.D.) in percent of basal expression, which was set to 100%.
Cells were pretreated with different concentrations of CAMVE for 3 h and then treated with 0.1 nM of TNF or 100 ng/ml SA-LPS for 12 h at 37° C. in a CO2 incubator. Extent of ICAM 1 expression was detected by staining the washed cells with FITC-labeled monoclonal antibody which binds to the cells expressing the CD 54 (ICAM 1). Unbound FITC-conjugated antibody is then washed from the cells and the cells were resuspended in 0.5 ml of 1% paraformaldehyde, and analyzed using Flow Cytometer (B D FACS Calibur). Cells CD54 structure is fluorescently stained, with the intensity of staining is directly proportional to the density of CD54.

[3] = test system: Cyclin D1; assay: Cyclin D1 mRNA, semi-quantitative RT-PCR; conditions: various concentrations
Method: FIG. 10: Effect of CAMVE on Cell Cycle distribution. A. 5×10^5 cells were treated with indicated concentrations of CAMVE as indicated and cell cycle analyses were performed using Flow Cytometry as described in the “Materials and Methods”. The percentage of cells in G1, S, and G2-M phase were calculated using Cell Quest analysis software and are represented within the histograms. The data shown here are from a representative experiment repeated three times with similar results. B. Expression of human Cyclin D1, was assayed by semi quantitative RT-PCR analysis with GAPDH as internal control. […]
Total RNA was isolated using the standard TRIzol method (Gibco BRL). Briefly, 3×10^6 cells were treated with different concentrations of the compounds as indicated in the legends to Figures and after harvesting the cell pellet was resuspended in 1 ml of TRIzol with repeated pipetting. The homogenized sample was incubated at RT for 5 min to permit complete dissociation of the nucleoprotein complexes. 200 μl of chloroform was added and the tubes were shaken vigorously for 15 sec by hand and then incubated at RT for 3 mins. The samples were then centrifuged at 10,000 RPM for 15 mins at 4° C. […]
Changes in gene expression were verified by semi-quantitative RT-PCR using GAPDH as an internal normalization standard. 1 μg of total RNA (quantified by spectrophotometer) was used to reverse transcribe into cDNA. […]

COC(=O)c1ccc(OC(=O)/C=C/c2ccc(O)c(O)c2)c(OC)c1 [compound 1, Methyl 4-{[(2E)-3-(3,4-dihydroxyphenyl)prop-2-enoyl]oxy}-3-methoxybenzoate]
TNF-induced NF-κB activation [1]: blocks TNF-induced NF-κB activation
basal ICAM1 expression ([2]; CAMVE alone): not altered by incubation with CAMVE alone
TNF or LPS induced ICAM1 expression ([2]; pretreated 3 h, TNF 0.1 nM or SA-LPS 100 ng/ml 12 h): blocked in CAMVE pretreated cells
expression of cyclin D1 m-RNA [3]: notably decreased
